The text below walks through data of patent US12466827B2, “1,3,4-oxadiazole derivative compounds as histone deacetylase 6 inhibitor, and the pharmaceutical composition comprising the same” (CHONG KUN DANG PHARMACEUTICAL CORP., priority 2020, dated 2025).

One experiment has as its target T1, human recombinant HDAC6 (Homo sapiens, UniProt Q9UBN7).
T1 construct: purchased Calbiochem Inc. 382180
T1 sequence (Q9UBN7 1-1215): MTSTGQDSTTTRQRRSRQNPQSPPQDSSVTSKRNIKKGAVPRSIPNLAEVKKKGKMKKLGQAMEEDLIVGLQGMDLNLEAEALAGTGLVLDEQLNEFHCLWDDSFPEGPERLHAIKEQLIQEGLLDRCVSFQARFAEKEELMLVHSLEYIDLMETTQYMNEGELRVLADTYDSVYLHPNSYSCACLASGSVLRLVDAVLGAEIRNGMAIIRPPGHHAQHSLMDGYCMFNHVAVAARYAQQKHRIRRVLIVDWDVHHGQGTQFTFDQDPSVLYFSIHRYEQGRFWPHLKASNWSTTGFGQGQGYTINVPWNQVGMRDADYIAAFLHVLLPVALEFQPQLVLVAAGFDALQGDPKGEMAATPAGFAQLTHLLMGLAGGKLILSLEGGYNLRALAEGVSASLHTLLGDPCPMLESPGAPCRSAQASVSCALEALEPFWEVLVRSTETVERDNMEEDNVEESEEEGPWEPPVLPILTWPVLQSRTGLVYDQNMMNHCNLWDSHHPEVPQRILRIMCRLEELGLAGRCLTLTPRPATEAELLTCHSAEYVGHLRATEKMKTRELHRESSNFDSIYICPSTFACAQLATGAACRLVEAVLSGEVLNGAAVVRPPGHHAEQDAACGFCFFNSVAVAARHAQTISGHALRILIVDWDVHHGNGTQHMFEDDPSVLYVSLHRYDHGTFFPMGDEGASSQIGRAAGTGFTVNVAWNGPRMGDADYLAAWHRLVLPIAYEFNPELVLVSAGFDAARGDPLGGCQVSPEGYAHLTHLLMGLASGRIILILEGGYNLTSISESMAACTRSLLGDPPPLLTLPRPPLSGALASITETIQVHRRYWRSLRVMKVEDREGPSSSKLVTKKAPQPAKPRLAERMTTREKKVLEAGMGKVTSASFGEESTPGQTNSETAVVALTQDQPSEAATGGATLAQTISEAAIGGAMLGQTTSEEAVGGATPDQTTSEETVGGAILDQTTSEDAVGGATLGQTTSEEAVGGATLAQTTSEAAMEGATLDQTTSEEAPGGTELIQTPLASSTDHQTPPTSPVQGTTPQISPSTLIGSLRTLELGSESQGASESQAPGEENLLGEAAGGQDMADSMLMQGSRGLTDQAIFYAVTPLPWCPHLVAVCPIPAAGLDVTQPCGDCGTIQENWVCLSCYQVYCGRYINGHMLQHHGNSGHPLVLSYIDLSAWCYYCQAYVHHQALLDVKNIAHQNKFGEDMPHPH
Nature of the experiment: In vitro HDAC enzyme activity inhibition assay (HDAC6). Format: biochemical. The following applies: for HDAC6 selectivity (fold): HDAC6 over HDAC1; for IC50: same protocol as the HDAC1 test, human recombinant HDAC6 (Calbiochem). The procedure, abridged: (§1)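 Fluorimetric deacetylase kit: human recombinant HDAC1 or HDAC6 (0.3 μg) with 10 μM Fluor de Lys-SIRT1 substrate and 5-fold diluted compounds, 60 min at 30° C. Developer added for 30 min, fluorescence read at Ex 360/Em 460, IC50 calculated.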

A further experiment addresses T2, human recombinant HDAC1 (Homo sapiens, UniProt Q13547).
T2 construct: purchased Enzo Life Sciences, Inc. BML-SE456
Nature of the experiment: In vitro HDAC enzyme activity inhibition assay (HDAC1). The experiment is classed as biochemical. The following applies: Fluor de Lys-SIRT1 substrate 10 μM, 30° C., 60 minutes, fluorescence. The gist of the method:
as §1

T2 sequence (Q13547 whole entry): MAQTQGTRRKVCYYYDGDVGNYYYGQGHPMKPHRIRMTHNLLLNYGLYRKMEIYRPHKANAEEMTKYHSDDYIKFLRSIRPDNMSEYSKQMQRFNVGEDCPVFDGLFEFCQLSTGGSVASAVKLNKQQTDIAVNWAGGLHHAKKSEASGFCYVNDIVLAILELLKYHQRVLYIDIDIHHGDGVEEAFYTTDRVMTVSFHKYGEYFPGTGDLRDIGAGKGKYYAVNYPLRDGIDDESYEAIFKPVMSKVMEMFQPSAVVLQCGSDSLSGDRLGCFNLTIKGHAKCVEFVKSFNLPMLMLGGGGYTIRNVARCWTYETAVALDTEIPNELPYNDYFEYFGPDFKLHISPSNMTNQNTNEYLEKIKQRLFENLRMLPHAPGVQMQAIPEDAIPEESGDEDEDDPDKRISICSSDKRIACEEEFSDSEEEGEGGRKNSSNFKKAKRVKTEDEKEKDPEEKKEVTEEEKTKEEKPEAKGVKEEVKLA

For `O=S(=O)(N1CCN(C2CCOCC2)CC1)N(Cc1cn2ccc(-c3nnc(C(F)F)o3)cc2n1)c1cccc(F)c1` [Compound 4304, N-((7-(5-(difluoromethyl)-1,3,4-oxadiazol-2-yl)imidazo[1,2-a]pyridin-2-yl)methyl)-N-(3-fluorophenyl)-4-(tetrahydro-2H-pyran-4-yl)piperazine-1-sulfonamide], the “HDAC6 selectivity (fold)” value on human recombinant HDAC6 was determined as 832 fold. Moreover, the figures for the half-inhibitory concentration (IC50) on human recombinant HDAC6 and on human recombinant HDAC1 were 0.0601 µM and greater than 50 µM, respectively.

For the compound `O=S(=O)(N1CCN(C2CCC(F)(F)CC2)CC1)N(Cc1cn2ccc(-c3nnc(C(F)F)o3)cc2n1)c1cccc(F)c1` [Compound 4305, 4-(4,4-difluorocyclohexyl)-N-((7-(5-(difluoromethyl)-1,3,4-oxadiazol-2-yl)imidazo[1,2-a]pyridin-2-yl)methyl)-N-(3-fluorophenyl)piperazine-1-sulfonamide], on human recombinant HDAC6, the “HDAC6 selectivity (fold)” value was determined as 437 fold. In addition, the IC50 – broadly, the concentration at which inhibition is half-maximal – was 0.114 µM at human recombinant HDAC6 and greater than 50 µM at human recombinant HDAC1.

As for `CC(=O)N1CCN(S(=O)(=O)N(Cc2cn3ccc(-c4nnc(C(F)F)o4)cc3n2)c2cccc(F)c2)CC1` [Compound 4306, 4-acetyl-N-((7-(5-(difluoromethyl)-1,3,4-oxadiazol-2-yl)imidazo[1,2-a]pyridin-2-yl)methyl)-N-(3-fluorophenyl)piperazine-1-sulfonamide], on human recombinant HDAC6, the “HDAC6 selectivity (fold)” value worked out at 617 fold. The half-inhibitory concentration (IC50) at human recombinant HDAC6 is 0.081 µM; at human recombinant HDAC1, greater than 50 µM.

With `CCC(=O)N1CCN(S(=O)(=O)N(Cc2cn3ccc(-c4nnc(C(F)F)o4)cc3n2)c2cccc(F)c2)CC1` [Compound 4307, N-((7-(5-(difluoromethyl)-1,3,4-oxadiazol-2-yl)imidazo[1,2-a]pyridin-2-yl)methyl)-N-(3-fluorophenyl)-4-propionylpiperazine-1-sulfonamide], on human recombinant HDAC6, the “HDAC6 selectivity (fold)” value stood at 365 fold and the IC50 worked out at 0.137 µM. In addition, the IC50 at human recombinant HDAC1 was greater than 50 µM.

As for `O=C(CO)N1CCN(S(=O)(=O)N(Cc2cn3ccc(-c4nnc(C(F)F)o4)cc3n2)c2cccc(F)c2)CC1` [Compound 4308, N-((7-(5-(difluoromethyl)-1,3,4-oxadiazol-2-yl)imidazo[1,2-a]pyridin-2-yl)methyl)-N-(3-fluorophenyl)-4-(2-hydroxyacetyl)piperazine-1-sulfonamide], at human recombinant HDAC6, the “HDAC6 selectivity (fold)” value worked out at 724 fold and the IC50 turned out to be 0.0691 µM. The IC50 on human recombinant HDAC1 was greater than 50 µM.

With `O=C(C1CCC1)N1CCN(S(=O)(=O)N(Cc2cn3ccc(-c4nnc(C(F)F)o4)cc3n2)c2cccc(F)c2)CC1` [Compound 4309, 4-(cyclobutanecarbonyl)-N-((7-(5-(difluoromethyl)-1,3,4-oxadiazol-2-yl)imidazo[1,2-a]pyridine-2-yl)methyl)-N-(3-fluorophenyl)piperazine-1-sulfonamide], on human recombinant HDAC6, the “HDAC6 selectivity (fold)” value is recorded as 437 fold and the IC50 came out at 0.114 µM. The IC50 on human recombinant HDAC1 is greater than 50 µM.

`O=C(C1COC1)N1CCN(S(=O)(=O)N(Cc2cn3ccc(-c4nnc(C(F)F)o4)cc3n2)c2cccc(F)c2)CC1` [Compound 4310, N-((7-(5-(difluoromethyl)-1,3,4-oxadiazol-2-yl)imidazo[1,2-a]pyridin-2-yl)methyl)-N-(3-fluorophenyl)-4-(oxetane-3-carbonyl)piperazine-1-sulfonamide]: on human recombinant HDAC6, the “HDAC6 selectivity (fold)” value came to 681 fold and the 50% inhibitory concentration (IC50) worked out at 0.0734 µM. The concentration for half-maximal inhibition (IC50) at human recombinant HDAC1 is greater than 50 µM.

With `O=C(N1CCN(S(=O)(=O)N(Cc2cn3ccc(-c4nnc(C(F)F)o4)cc3n2)c2cccc(F)c2)CC1)C(F)(F)F` [Compound 4311, N-((7-(5-(difluoromethyl)-1,3,4-oxadiazol-2-yl)imidazo[1,2-a]pyridin-2-yl)methyl)-N-(3-fluorophenyl)-4-(2,2,2-trifluoroacetyl)piperazine-1-sulfonamide], on human recombinant HDAC6, the “HDAC6 selectivity (fold)” value stood at 510 fold. The IC50 was 0.098 µM at human recombinant HDAC6 and greater than 50 µM on human recombinant HDAC1.

For `CS(=O)(=O)N1CCN(S(=O)(=O)N(Cc2cn3ccc(-c4nnc(C(F)F)o4)cc3n2)c2cccc(F)c2)CC1` [Compound 4312, N-((7-(5-(difluoromethyl)-1,3,4-oxadiazol-2-yl)imidazo[1,2-a]pyridin-2-yl)methyl)-N-(3-fluorophenyl)-4-(methylsulfonyl)piperazine-1-sulfonamide], on human recombinant HDAC6, the “HDAC6 selectivity (fold)” value worked out at 530 fold and the IC50 turned out to be 0.0943 µM. For the same compound, the 50% inhibitory concentration (IC50) at human recombinant HDAC1 is greater than 50 µM.

For `COC(=O)N1CCN(S(=O)(=O)N(Cc2cn3ccc(-c4nnc(C(F)F)o4)cc3n2)c2cccc(F)c2)CC1` [Compound 4313, methyl 4-(N-((7-(5-(difluoromethyl)-1,3,4-oxadiazol-2-yl)imidazo[1,2-a]pyridin-2-yl)methyl)-N-(3-fluorophenyl)sulfamoyl)piperazine-1-carboxylate], the “HDAC6 selectivity (fold)” value on human recombinant HDAC6 is reported as 371 fold. In addition, the half-maximal inhibitory concentration (IC50) on human recombinant HDAC6 is 0.135 µM; at human recombinant HDAC1 it was greater than 50 µM.

`CN(C)C(=O)N1CCN(S(=O)(=O)N(Cc2cn3ccc(-c4nnc(C(F)F)o4)cc3n2)c2cccc(F)c2)CC1` [Compound 4314, 4—(N-((7-(5-(difluoromethyl)-1,3,4-oxadiazol-2-yl)imidazo[1,2-a]pyridin-2-yl)methyl)-N-(3-fluorophenyl)sulfamoyl)-N, N-dimethylpiperazine-1-carboxamide]: the “HDAC6 selectivity (fold)” value at human recombinant HDAC6 was determined as 462 fold. For the same compound, the concentration for half-maximal inhibition (IC50) is 0.108 µM on human recombinant HDAC6 and greater than 50 µM at human recombinant HDAC1.

Regarding `O=S(=O)(N1CCN(c2ncccn2)CC1)N(Cc1cn2ccc(-c3nnc(C(F)F)o3)cc2n1)c1cccc(F)c1` [Compound 4315, N-((7-(5-(difluoromethyl)-1,3,4-oxadiazol-2-yl)imidazo[1,2-a]pyridin-2-yl)methyl)-N-(3-fluorophenyl)-4-(pyrimidin-2-yl)piperazine-1-sulfonamide], the “HDAC6 selectivity (fold)” value at human recombinant HDAC6 amounted to 309 fold. For the same compound, the IC50 on human recombinant HDAC6 was 0.162 µM; on human recombinant HDAC1, greater than 50 µM.

Turning to `O=S(=O)(C1CCN(C2CC3(CCC3)C2)CC1)N(Cc1cn2ccc(-c3nnc(C(F)F)o3)cc2n1)c1cccc(F)c1` [Compound 4616, N-((7-(5-(difluoromethyl)-1,3,4-oxadiazol-2-yl)imidazo[1,2-a]pyridin-2-yl)methyl)-N-(3-fluorophenyl)-1-(spiro[3.3]heptan-2-yl)piperidine-4-sulfonamide], the “HDAC6 selectivity (fold)” value on human recombinant HDAC6 is 243 fold. Also, the half-maximal inhibitory concentration (IC50) on human recombinant HDAC6 was 0.205 µM; on human recombinant HDAC1, greater than 50 µM.

For the compound `O=S(=O)(C1CCN(C2CC3(COC3)C2)CC1)N(Cc1cn2ccc(-c3nnc(C(F)F)o3)cc2n1)c1cccc(F)c1` [Compound 4617, N-((7-(5-(difluoromethyl)-1,3,4-oxadiazol-2-yl)imidazo[1,2-a]pyridin-2-yl)methyl)-N-(3-fluorophenyl)-1-(2-oxaspiro[3.3]heptan-6-yl)piperidine-4-sulfonamide], at human recombinant HDAC6, the “HDAC6 selectivity (fold)” value was 666 fold. Besides, the concentration for half-maximal inhibition (IC50) at human recombinant HDAC6 was 0.075 µM; on human recombinant HDAC1 it was greater than 50 µM.

`O=S(=O)(N1CCN(C2CC3(CCC3)C2)CC1)N(Cc1cn2ccc(-c3nnc(C(F)F)o3)cc2n1)c1cccc(F)c1` [Compound 4622, N-((7-(5-(difluoromethyl)-1,3,4-oxadiazol-2-yl)imidazo[1,2-a]pyridin-2-yl)methyl)-N-(3-fluorophenyl)-4-(spiro[3.3]heptan-2-yl)piperazine-1-sulfonamide]: at human recombinant HDAC6, the “HDAC6 selectivity (fold)” value came out at 274 fold and the IC50 was found to be 0.182 µM. Besides, the IC50 on human recombinant HDAC1 is greater than 50 µM.
